US20250032437A1, “D-Serine Inhibits Neuroinflammation Due To A Brain Injury” (Florida State University Research Foundation, Inc., priority 2019, published 2025)

System: entorhinal cortex (neurons, astrocytes, microglia) of animals made epileptic with a chemo-convulsant
Test: D-serine injected into the entorhinal area in an animal model of Temporal Lobe Epilepsy; neurons, astrocytes and microglia identified with fluorescent-tagged antibodies
Assay type: in vivo
Procedure: These cells cause inflammation in brain tissue by releasing cytokines. These neuroinflammatory cell types were identified using fluorescent-tagged antibodies first in control animals and then in animals that were made epileptic using a well-established animal model of Temporal Lobe Epilepsy. […] In a separate sample of animals, D-serine was injected into the entorhinal area prior to making them epileptic with a chemo-convulsant and immediately after administration of the chemo-convulsant.

[1] = D-serine injected into the entorhinal area, FIG. 2 vs FIG. 3

Compound: N[C@H](CO)C(=O)O [D-serine]
- development of epilepsy after chemo-convulsant (D-serine injected into the entorhinal area prior to and immediately after administration of the chemo-convulsant): did not become epileptic
- astrocytes in the entorhinal region (GFAP) [1]: fewer astrocytes
- neurons in the entorhinal cortex (NeuN) compared with the epileptic animals [1]: significant rescue of neurons
- infiltration of microglia to the entorhinal region (OX42) (D-serine injected into the entorhinal area, FIG. 7 vs FIG. 8): significantly reduced
